Broadly, the GI50 is the concentration giving 50% growth inhibition. As usually defined, the half-life is the time needed for the level to fall by half in the phase considered. In general, IC50 refers to the concentration needed to halve the response being measured. Low readings indicate higher potency, high ones lower potency.

SMILES strings stand for the structures.

For series [1], the system named is Colo205 cells. In words: Cell-based proliferation assay for GI50 (CyQUANT), Colo205. The following applies: Homo sapiens, COLO 205, 96 h treatment, read-out: Cellular or Growth Inhibition Activity in Colo205 cells, GI50. Summed up: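 Cells were seeded at 1000 (PC3), 5000 (Colo205), 6000 (HCT116) or 4000 (HEP3B) per well and left 24 h at 37° C. Compound treatment lasted 96 h. Growth was read by CyQUANT, and GI50 (50% growth inhibition) came from dose-response curves.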

Series [2] concerns HCT116. Kind of series: Cell-based proliferation assay for GI50 (CyQUANT), HCT116. The settings on record: Homo sapiens, HCT-116; HCT116, 96 h treatment; read-out: Cellular or Growth Inhibition Activity, GI50, HCT116. The method, then:
(§1) Human colon cancer cell lines (Colo205, HCT116), Ovarian cancer cell line (A2780), Hepatoma cell line (HEP3B), Prostate cancer cell line (PC3) were obtained from ATCC or ECACC. Colo205 cells were cultivated in RPMI 1640 containing 2 mM L-Glutamine, 5% FBS, 1.0 mM Na Pyruvate, 1 U/ml of penicillin and 1 μg of streptomycin. HCT116 cells were cultivated in McCoy's containing RPMI 1640 containing 2 mM L-Glutamine, 5% FBS, 1 U/ml of penicillin and 1 μg of streptomycin. A2780 cells were cultivated in RPMI 1640 containing 2 mM L-Glutamine, 5% FBS, 1 U/ml of penicillin and 1 μg of streptomycin. HEP3B cells were cultivated in EMEM containing 2 mM L-glutamine, 5% FBS, 1% non essential amino acid, 1 mM Na Pyruvate, 1 U/ml of penicillin and 1 μg of streptomycin. PC3 cells were cultivated in F12K, 2 mM L-glutamine, 5% FBS, 1 U/ml of penicillin and 1 μg of streptomycin. PC3, Colo205, and HCT116 cells were seeded in 96-wells plate at 1000, 5000 and 6000 cells per well respectively. A2780 and HEP3B cells were seeded in 96-wells plate at 4000 cells per well respectively. The plates were incubated at 37° C., 5% CO2, for 24 h. Cells were treated with compounds at various concentrations for 96 h. Cell growth was then monitored using CyQUANT® cell proliferation assay (Invitrogen Pte Ltd). Dose response curves were plotted to determine GI50 values for the compounds using XL-fit (ID Business Solution, Emeryville, Calif.). GI50 is defined as the concentration of compound required for 50% inhibition of cell growth.

The subject of series [3] is A2780. In words: Cell-based proliferation assay for GI50 (CyQUANT), A2780. The following applies: Homo sapiens; A2780, 96 h treatment; read-out: Cellular or Growth Inhibition Activity, GI50, A2780. The method, then:
as §1

Series [4] deals with PC3. Kind of series: Cell-based proliferation assay for GI50 (CyQUANT), PC3. The settings on record: Homo sapiens, PC-3; PC3, 96 h treatment; read-out: Cellular or Growth Inhibition Activity, GI50, PC3. The protocol:
as §1

Series [5] in a line: Measurement of microsomal stability. The following applies: pooled human liver microsomes, pH 7.4; human liver microsome, 5 μM test compound, 1.0 mg/ml microsomal protein. The format is in vitro ADME. The protocol: Metabolic stability measurements in the in vitro using liver microsomes aids in the prediction of the in vivo hepatic clearance and the compound stability towards phase I biotransformation reactions mediated by P450 isozymes.
Pooled human liver microsome (HLM was purchased from BD Gentest (BD BioSciences). The incubations consisted of test compound (5 μM) or control compound (Verapamil), NADPH-generating system solution A (25 mM NADP^+, 66 mM glucose-6-phosphate, 66 mM MgCl2 in H2O), NADPH-generating system solution B (40 U/ml glucose-6-phosphate dehydrogenase in 5 mM sodium citrate) and 1.0 mg/ml microsomal protein, respectively, in 100 mM potassium phosphate buffer (pH 7.4). Samples were incubated for 0, 5, 15, 30, 45, 60 min. Reaction was terminated with ice-cold 80% acetonitrile and 20% DMSO. Samples were subsequently centrifuged at 4° C. for 15 min at 2,000 rpm. 100 μL of the supernatant was transferred to the LC-MS Plate for analysis. Before quantitative analysis, the compound was tuned in LC/MS machine to get the optimized MS condition. Liquid chromatography was performed on a Luna C18 column (Phenomenex U.S.A, Torrance, Calif.) (2×50 mm, 5 μM). % of the compound remaining (by area) at each time point is calculated with respect to time 0 min. Plot % remaining against time (min) to obtain the curve and use the Prism software to obtain the t1/2.
On the technique in general: Liver microsomes are vesicles of endoplasmic reticulum, rich in cytochrome P450 enzymes.

In series [6] the target is T1, HDAC1 enzyme (Homo sapiens, UniProt Q13547).
T1 construct: Amplification of human HDAC1 coding region from this cDNA library was cloned separately into the baculovirus expression pDEST20 vector; made in house; host or cells: SF9 insect cells, pDEST20-HDAC1 baculovirus
In words: In vitro HDAC assay for determination of IC50 values (BIOMOL fluorescent-based HDAC activity assay). The format is biochemical. The gist of the method: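 Recombinant GST-HDAC1, cloned from SW620 cDNA and expressed in Sf9 cells, tested in a fluorogenic Fluor de Lys deacetylase assay. Developer was added for 10 min and fluorescence read at 360/460 nm. IC50 came from concentration series.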

In series [7] the test system is acetylated histone H3. Kind of series: Histone H3 acetylation assay (immuno-blotting) in Colo205 cells. Format: cell-based, Human. The settings on record: 10 μM, 24 h, western-blot. The protocol:
A hallmark of histone deacetylase (HDAC) inhibition is the increase in the acetylation level of histones. Histone acetylation, including H3, H4 and H2A can be detected by immuno-blotting (western-blot). Colo205 cells, approximately 5×10^5 cells, were seeded in the previously described medium, cultivated for 24 h and subsequently treated with HDAC inhibitory agents and a positive control at a final concentration of 10 μM. After 24 h, cells were harvested and lysed according to the instruction from Sigma Mammalian Cell Lysis Kit. The protein concentration was quantified using BCA method (Sigma Pte Ltd). The protein lysate was separated using 4-12% bis-tris SDS-PAGE gel (Invitrogen Pte Ltd) and was transferred onto PVDF membrane (BioRad Pte Ltd). The membrane was probed using primary antibody specific for acetylated histone H3 (Upstate Pte Ltd). The detection antibody, goat anti rabbit antibody conjugated with HRP was used according to the manufacturing instruction (Pierce Pte Ltd). After removing the detection antibody from the membrane, an enhanced chemiluminescent substrate for detection of HRP (Pierce Pte Ltd) was added onto the membrane. After removing the substrate, the membrane was exposed to an X-ray film (Kodak) for 1 sec-20 mins. The X-ray film was developed using the X-ray film processor. The density of each band observed on the developed film could be qualitatively analyzed using UVP Bioimaging software (UVP, Inc, Upland, Calif.). The values were then normalized against the density of actin in the corresponding samples to obtain the expression of the protein.

T1 sequence (Q13547 whole entry): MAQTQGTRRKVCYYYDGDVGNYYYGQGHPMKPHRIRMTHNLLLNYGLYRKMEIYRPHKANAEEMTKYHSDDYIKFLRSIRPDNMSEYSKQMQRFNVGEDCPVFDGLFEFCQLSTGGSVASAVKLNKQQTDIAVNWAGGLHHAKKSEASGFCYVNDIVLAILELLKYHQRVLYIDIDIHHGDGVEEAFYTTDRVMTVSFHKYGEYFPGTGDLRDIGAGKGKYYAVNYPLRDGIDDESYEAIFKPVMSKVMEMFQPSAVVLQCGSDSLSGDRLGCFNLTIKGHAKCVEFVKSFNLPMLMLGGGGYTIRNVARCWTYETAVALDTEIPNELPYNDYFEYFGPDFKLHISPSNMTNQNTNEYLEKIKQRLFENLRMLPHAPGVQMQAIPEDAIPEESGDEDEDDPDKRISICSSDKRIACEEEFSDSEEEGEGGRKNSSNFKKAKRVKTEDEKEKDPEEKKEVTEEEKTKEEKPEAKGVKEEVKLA

Regarding `CCN(CC)CCn1c(CC(C)C)nc2cc(/C=C/C(=O)NO)ccc21` [Compound 7, 3-[1-(2-Diethylamino-ethyl)-2-isobutyl-1H-benzoimidazol-5-yl]-N-hydroxy-acrylamide], the GI50 in series [1] was 0.81 µM; in series [2], 1 to 5 µM; in series [3] it was 1 to 5 µM; in series [4], 0.5 to 1 µM.
For `CCN(CC)CCn1c(CCC(F)(F)F)nc2cc(/C=C/C(=O)NO)ccc21` [Compound 14, 3-[1-(2-Diethylamino-ethyl)-2-(3,3,3-trifluoro-propyl)-1H-benzoimidazol-5-yl]-N-hydroxy-acrylamide], the half-life at 5 μM in series [5] is > 30 min. Further, the GI50 in series [1] was 0.63 µM. Moreover, in series [6], the IC50 is 0.077 µM.
Take `CC(C)NCCn1c(CC(C)(C)C)nc2cc(/C=C/C(=O)NO)ccc21` [Compound 19]: the half-life at 5 μM in series [5] was > 30 min. Moreover, the GI50 in series [1] is 0.53 µM. In series [6], this molecule showed an IC50 of 0.064 µM.
Turning to `CC/C=C\CCc1nc2cc(/C=C/C(=O)NO)ccc2n1CC(C)(C)CN(C)C` [Compound 22, 3-[1-(3-Dimethylamino-2,2-dimethyl-propyl)-2-hex-3-enyl-1H-benzoimidazol-5-yl]-N-hydroxy-acrylamide], the GI50 in series [1] was 0.75 µM; in series [2], 1 to 5 µM; in series [3], < 0.5 µM; in series [4] it was < 0.5 µM. The molecule also yielded a 50% inhibitory concentration (IC50) in series [6] of 0.064 µM.
On to `CC(Cc1nc2cc(/C=C/C(=O)NO)ccc2n1CC(C)(C)CN(C)C)CC(C)(C)C` (stereo not shown) [Compound 23, 3-[1-(3-Dimethylamino-2,2-dimethyl-propyl)-2-(2,4,4-trimethyl-pentyl)-1H-benzoimidazol-5-yl]-N-hydroxy-acrylamide], for which the GI50 was 0.19 µM in series [1], 0.5 to 1 µM in series [2], < 0.5 µM in series [3] and < 0.5 µM in series [4]. Moreover, in series [6], half-maximal inhibition (IC50) required 0.045 µM.
As for `CC/C=C\CCc1nc2cc(/C=C/C(=O)NO)ccc2n1CCNCC` [Compound 30, 3-[1-(2-Ethylamino-ethyl)-2-hex-3-enyl-1H-benzoimidazol-5-yl]-N-hydroxy-acrylamide], the GI50 was 0.31 µM in series [1], 0.5 to 1 µM in series [2], < 0.5 µM in series [3] and < 0.5 µM in series [4].
With `CC(C)Cc1nc2cc(/C=C/C(=O)NO)ccc2n1CCNC(C)C` [Compound 35, N-Hydroxy-3-[2-isobutyl-1-(2-isopropylamino-ethyl)-1H-benzoimidazol-5-yl]-acrylamide], the half-life at 5 μM in series [5] was > 30 min. The GI50 in series [1] turned out to be 0.66 µM. This molecule also registered an IC50 in series [6] of 0.082 µM.
Take `CCNCCn1c(CC(C)CC(C)(C)C)nc2cc(/C=C/C(=O)NO)ccc21` (stereo not shown) [Compound 40, 3-[1-(2-Ethylamino-ethyl)-2-(2,4,4-trimethyl-pentyl)-1H-benzoimidazol-5-yl]-N-hydroxy-acrylamide]: the half-life at 5 μM in series [5] was > 30 min. The GI50 in series [1] is 0.16 µM; in series [2], < 0.5 µM; in series [3] it was < 0.5 µM; in series [4] it was < 0.5 µM. In series [6], the IC50 is 0.027 µM.
Consider `CCCCc1nc2cc(/C=C/C(=O)NO)ccc2n1CCNCC` [Compound 44, 3-[2-Butyl-1-(2-ethylamino-ethyl)-1H-benzoimidazol-5-yl]-N-hydroxy-acrylamide], for which the half-life at 5 μM in series [5] was > 30 min. Moreover, the concentration for 50% growth inhibition (GI50) is 0.87 µM in series [1], 1 to 5 µM in series [2], 0.5 to 1 µM in series [3] and < 0.5 µM in series [4]. The molecule also had an IC50 in series [6] of 0.054 µM.
For the molecule `CCCCCCc1nc2cc(/C=C/C(=O)NO)ccc2n1CCNC(C)C` [Compound 50, 3-[2-Hexyl-1-(2-isopropylamino-ethyl)-1H-benzoimidazol-5-yl]-N-hydroxy-acrylamide], the concentration for 50% growth inhibition (GI50) in series [1] is 0.17 µM; in series [2], < 0.5 µM; in series [3], < 0.5 µM; in series [4], < 0.5 µM.
As to `CCCCCCc1nc2cc(/C=C/C(=O)NO)ccc2n1CCNCC` [Compound 52, 3-[1-(2-Ethylamino-ethyl)-2-hexyl-1H-benzoimidazol-5-yl]-N-hydroxy-acrylamide], the half-life at 5 μM in series [5] is > 30 min. Also, the GI50 in series [1] was 0.21 µM; in series [2], < 0.5 µM; in series [3], < 0.5 µM; in series [4], < 0.5 µM. This molecule also returned an IC50 in series [6] of 0.025 µM.
In the case of `CCCCCc1nc2cc(/C=C/C(=O)NO)ccc2n1CCN(C)C` [Compound 65, 3-[1-(2-Dimethylamino-ethyl)-2-pentyl-1H-benzoimidazol-5-yl]-N-hydroxy-acrylamide], the 50% growth inhibitory concentration (GI50) in series [1] came out at 0.56 µM. This molecule also came in with an IC50 in series [6] of 0.078 µM. Also, the “Histone Acetylation activities (Histone-3)” value in series [7] is “Active”.
As to `CCCCc1nc2cc(/C=C/C(=O)NO)ccc2n1CCN(C)C(C)C` [Compound 78, 3-{2-Butyl-1-[2-(isopropyl-methyl-amino)-ethyl]-1H-benzoimidazol-5-yl}-N-hydroxy-acrylamide], the half-life at 5 μM in series [5] was > 30 min. For the same molecule, the 50% growth inhibitory concentration (GI50) in series [1] was 0.54 µM. This molecule came in with an IC50 in series [6] of 0.044 µM.
`CCCCCCc1nc2cc(/C=C/C(=O)NO)ccc2n1C1CCNC1` (stereo not shown) [Compound 80, 3-(2-Hexyl-1-pyrrolidin-3-yl-1H-benzoimidazol-5-yl)-N-hydroxy-acrylamide]: in series [5], the half-life at 5 μM was > 30 min. Besides, the GI50 in series [1] was found to be 1.37 µM. In series [6], this molecule returned an IC50 of 0.04 µM.
With `CCCCCN(CC)CCn1cnc2cc(/C=C/C(=O)NO)ccc21` [Compound 88, 3-{1-[2-(Ethyl-pentyl-amino)-ethyl]-1H-benzoimidazol-5-yl}-N-hydroxy-acrylamide], in series [5], the half-life at 5 μM was > 30 min. In addition, the GI50 in series [1] turned out to be 0.55 µM. For the same molecule, in series [6], the IC50 turned out to be 0.047 µM.
For `CCCCN(CCn1cnc2cc(/C=C/C(=O)NO)ccc21)C(C)C` [Compound 108, 3-{1-[2-(Butyl-isopropyl-amino)-ethyl]-1H-benzoimidazol-5-yl}-N-hydroxy-acrylamide], in that order: > 30 min, 0.44 µM and 0.043 µM.

The values above are taken from patent US8143282B2, “Heterocyclic compounds” (S*BIO Pte Ltd., priority 2005, dated 2012).
